In the supplement of paper PMC11451515:

Tests used:
Assay in all cases: AUC of viability dose-response curve (% viability x log10 dose units); higher = less sensitive
Conditions in all cases: 48 h
[1] = test system: NOMO1
Summary of the method: (§1)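 Seeding of medium-adapted leukemia cells was at 500 or 1000 cells/well in 1536-well plates, followed by 48 h at 37°C with library compounds in DMSO at 11 threefold doses from 47 μM to 0.79 nM. CellTiter-Glo One luminescence was normalised per plate to DMSO and cell-free wells and fitted as a four-parameter log-logistic function of log10 dose. Area under the curve was integrated by trapezoidal rule, with curves exceeding full viability scaled and curves failing quality control removed.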

[2] = test system: P12-Ichikawa
Summary of the method: as §1

[3] = test system: SEM cells
Summary of the method: as §1

[4] = RPMI 5 mM glucose + 10% dialyzed FBS

SMILES | AUC of viability dose-response curve ([1]; HPLM + 10% dialyzed FBS) | AUC of viability dose-response curve ([1]; RPMI 5 mM glucose + 10% FBS) | AUC of viability dose-response curve [1, 4] | AUC of viability dose-response curve ([2]; HPLM + 10% dialyzed FBS) | AUC of viability dose-response curve ([2]; RPMI 5 mM glucose + 10% FBS) | AUC of viability dose-response curve [2, 4] | AUC of viability dose-response curve ([3]; HPLM + 10% dialyzed FBS) | AUC of viability dose-response curve ([3]; RPMI 5 mM glucose + 10% FBS) | AUC of viability dose-response curve [3, 4]
CCc1cncnc1N1CCN(Cc2nc3cc(C(F)(F)F)ccc3[nH]2)CC1 | 462 | 425 | 426 | 445 | 437 | 451 | 429 | 425 | 426
NC1(Cc2ccc(Cl)cc2)CCN(c2ncnc3[nH]ccc23)CC1 | 418 | 395 | 381 | 425 | 384 | 393 | 377 | 357 | 352
O=C(OC)[C@]12CC[C@@]3(C)[C@]4(C)CC[C@H]5[C@@](C)(C)C(=O)C(=C[C@]5(C)C4=CC(=O)[C@@H]3[C@@H]2C[C@](C)(C)CC1)C#N | 408 | 372 | 381 | 407 | 404 | 396 | 393 | 408 | 370
CC\1=C(C(\N=C(/N1)C2=CC(=NC=C2)Cl)C3=C(F)C=C(Cl)C=C3)/C(=O)NC4=C(F)C=C5[NH]N=CC5=C4 (configuration not stated) | 459 | 443 | 457 | 440 | 439 | 441 | 408 | 405 | 423
CC[C@H](CC#N)OC(=O)N[C@@H](C)c1cccc(NC(=O)Nc2ccc(-c3cnco3)c(OC)c2)c1 | 371 | 368 | 379 | 384 | 359 | 363 | 356 | 347 | 408
COc1ccc(CC2NCCc3cc(OC)c(OC)cc32)cc1OC (configuration not stated) | 451 | 427 | 407 | 459 | 416 | 420 | 397 | 390 | 403
CCN(CC)CC#CCOC(=O)C(O)(c1ccccc1)C1CCCCC1 (configuration not stated) | 468 | 473 | 465 | 460 | 475 | 472 | 458 | 476 | 471
ClC1=C(N\C2=N\CCN2)C3=NSN=C3C=C1 | 434 | 440 | 428 | 461 | 465 | 455 | 419 | 427 | 432
CC\1=C/C=C\C=[N]1[Pt](N)(Cl)Cl | 471 | 465 | 463 | 472 | 467 | 464 | 427 | 465 | 421
C[C@]\12CC[C@H](O)CC1=C/CC3C2CC[C@@]\4(C)C3C\C=C4[N]5C=NC6=C5C=CC=C6 (some centres not stated) | 461 | 454 | 461 | 469 | 465 | 470 | 428 | 455 | 466
CCCCCCCCCCCCCCCCCCCCCCO | 458 | 444 | 456 | 445 | 461 | 447 | 444 | 460 | 447
COC1=CC=CC=C1C2=CC=CC(=C2)C/3=C(O)/C4=CC(=C(Cl)C=C4NC3=O)C#N | 368 | 401 | 400 | 361 | 388 | 380 | 350 | 288 | 344
Cc1cc(OCCCc2c(C(=O)O)n(Cc3cccnc3)c3c(-c4c(COc5ccc(N6CCN([S+](C)(=O)[O-])CC6)cc5)nn(C)c4C)cccc23)cc(C)c1Cl | 452 | 418 | 443 | 452 | 441 | 446 | 441 | 441 | 439
CNC1CCC(N(Cc2cccc(-c3ccncc3)c2)C(=O)c2sc3ccccc3c2Cl)CC1 (configuration not stated) | 330 | 326 | 381 | 319 | 326 | 302 | 310 | 267 | 279
CCCCCOC(=O)NC\1=N\C(=O)N(\C=C1F)[C@@H]2O[C@H](C)[C@@H](O)[C@H]2O | 413 | 434 | 458 | 460 | 443 | 442 | 468 | 466 | 469
FC(F)(F)c1ccc(/C=C/c2nc(COc3ccc(CCCCn4ccnn4)cc3)co2)cc1 | 360 | 359 | 381 | 338 | 309 | 362 | 445 | 411 | 374
OC1=CC=C(C=C1)\C2=C\OC3=C(C=CC(=C3)O)C2=O | 473 | 459 | 470 | 446 | 446 | 457 | 472 | 467 | 467

SMILES | AUC of viability dose-response curve ([1]; HPLM + 10% dialyzed FBS) | AUC of viability dose-response curve ([1]; RPMI 5 mM glucose + 10% FBS) | AUC of viability dose-response curve [1, 4] | AUC of viability dose-response curve ([2]; HPLM + 10% dialyzed FBS) | AUC of viability dose-response curve ([2]; RPMI 5 mM glucose + 10% FBS) | AUC of viability dose-response curve [2, 4] | AUC of viability dose-response curve ([3]; HPLM + 10% dialyzed FBS) | AUC of viability dose-response curve ([3]; RPMI 5 mM glucose + 10% FBS) | AUC of viability dose-response curve [3, 4]
CN(C)CCOc1cc(-c2cn[nH]c2)ccc1NC(=O)C1COc2ccccc2O1 (configuration not stated) | 460 | 442 | 447 | 449 | 455 | 459 | 439 | 453 | 453
C#Cc1cccc(Nc2ncnc3cc(OCCOC)c(OCCOC)cc23)c1 | 433 | 440 | 400 | 445 | 421 | 418 | 425 | 453 | 390
CC1=CC=CC=C1N2\C(=N/C3=C(C(=CC=C3)C)C2=O)C[N]4C=NC5=C4N=CN=C5N | 369 | 427 | 406 | 439 | 412 | 419 | 344 | 308 | 344
Cn1c(=O)c2c(ncn2C)n(C)c1=O.O=C(O)CC(O)(CC(=O)O)C(=O)O | 439 | 465 | 455 | 459 | 462 | 472 | 472 | 456 | 475
Cc1ccc(NC(=O)c2ccc(CN3CCN(C)CC3)cc2)cc1Nc1nc(-c2cccnc2)cs1 | 417 | 468 | 440 | 417 | 405 | 406 | 238 | 255 | 223
COc1cc2c(cc1-c1c(C)noc1C)ncc1[nH]c(=O)n([C@H](C)c3ccccn3)c12 | 373 | 382 | 382 | 380 | 396 | 393 | 336 | 336 | 323
C/C=C(/C)C(=O)O[C@H]1C(C)=C2[C@H]([C@@H]1OC(=O)CCCCCCC)[C@@](C)(OC(C)=O)C[C@H](OC(=O)CCC)[C@@]1(O)[C@H]2OC(=O)[C@@]1(C)O | 206 | 224 | 211 | 364 | 297 | 257 | 211 | 183 | 174
Nc1ccccc1NC(=O)c1ccc(CNC(=O)OCc2cccnc2)cc1 | 326 | 351 | 334 | 350 | 354 | 347 | 313 | 308 | 310
COc1c(C)cnc(Cn2cnc3c(Cl)nc(N)nc32)c1C | 322 | 324 | 323 | 376 | 334 | 340 | 306 | 293 | 306
CC/1=C/C(=O)N(O)/C(=C1)C2CCCCC2 | 441 | 445 | 446 | 435 | 415 | 430 | 430 | 419 | 427
[NH2][Pt]1([NH2])[O]CC(=O)[O]1 | 462 | 429 | 432 | 467 | 463 | 439 | 455 | 464 | 407
Cc1cn2c(-c3cn[nH]c3)cnc2c(Nc2ccc(C(=O)N3CCNCC3)cc2F)n1 | 430 | 417 | 409 | 444 | 440 | 439 | 419 | 424 | 421
Cc1c(CN2CCN(C(=O)[C@H](C)O)CC2)sc2c(N3CCOCC3)nc(-c3cnc(N)nc3)nc12 | 318 | 352 | 308 | 401 | 338 | 345 | 285 | 304 | 284
COc1cccc2cc(-c3nc(C4CCC(C(=O)O)CC4)n4ncnc(N)c34)[nH]c12 (configuration not stated) | 338 | 358 | 359 | 292 | 307 | 308 | 315 | 327 | 329
COC(=O)Nc1nc2cc(C(=O)c3cccs3)ccc2[nH]1 | 297 | 247 | 269 | 193 | 206 | 242 | 212 | 156 | 211
CC(C)n1nc(-c2cc3cc(O)ccc3[nH]2)c2c(N)ncnc21 | 350 | 399 | 355 | 360 | 332 | 341 | 306 | 327 | 317
